Melting point data for 90 molecules are collected here from a melting point compilation (Tetko et al.; mined from patent text by program, amines drawn as free bases though some values may be those of a salt).

Molecules are shown by their SMILES.

`CC(CC(=O)O)CC(=O)Nc1ccc(Cl)cc1` (stereo not given) showed a melting point of 116 to 118 °C.

As to `COc1cc(OC)c2c(=O)[nH]c(-c3ccc(N4C[C@@H](C)N(C(C)=O)[C@@H](C)C4)cc3)nc2n1`, the melting point lay in the range of 279 to 280 °C.

The molecule `O=C1CCc2c(OCCCl)cccc21` came in with a melting point of 56 to 58 °C.

`CO[C@@]1(C)[C@@H](NC(=O)C(F)(F)F)CC(OC(=O)c2ccc([N+](=O)[O-])cc2)O[C@H]1C` (stereo not given in full) showed a melting point of 180 to 181 °C.

With `O=C(NCCSCc1cccc(NC(=O)C2CC2)c1)c1c(Cl)cccc1Cl`, the melting point lay within 46 to 47 °C.

The molecule `O=Cc1ccc(O)c(C=O)n1` displayed a melting point of 144 °C.

With `Nn1ccnc1-c1ccc(Cl)cc1`, the melting point is 210 °C.

`COC1=CC2=CCC3C(C(F)CC4(C)C(=O)CCC34)C2CC1` (stereo not given): the melting point was 173 °C.

In the case of `CC=C(Cl)C(Cl)CC(O)(Cn1cncn1)C1(Cl)CC1` (stereo not given), the melting point was in the range of 79 to 80 °C.

`COC(=O)c1cc(OC)c(C(=O)O)cc1OC` gave a melting point of 123 to 124 °C.

As to `O=C(O)c1c[nH]c(=S)n1C1Cc2cc(F)cc(F)c2C1` (stereo not given), the melting point lay within 230 to 232 °C.

In turn, `c1ccc(OCCSCc2nnc(-c3ccc(OCCN4CCSCC4)cc3)o2)cc1` had a melting point of 60 °C.

`COC(=O)C1=C(C)NC(CO)=C(C(=O)OC)C1c1cccc([N+](=O)[O-])c1` (stereo not given) came in with a melting point of 145 to 146 °C.

`CCN1C(=O)C(C)(C)C(=O)N(C)c2cc(CN(CCN3C(=O)CCc4ccccc43)Cc3cccnc3C)ccc21` displayed a melting point of 130 to 131 °C.

`CC(CCCn1c(C)nc2c(N)nc3ccccc3c21)=NOCc1ccccc1` showed a melting point of 146 to 148 °C.

In turn, `CCCOC(C(=O)O)c1ccc2c(c1)C(C)(C)CCC2(C)C` (racemic) showed a melting point of 84 to 86 °C.

On to `COc1ccc(NN=C(Sc2ccc(F)cc2)C(C)=O)cc1`, for which the melting point lay within 135 to 137 °C.

In turn, `COC(=O)C=C(CC(=O)OC)NCc1ccccc1` had a melting point of 67 to 69 °C.

The molecule `O=C(O)C[C@H]1CC[C@H](Sc2nc(C3OCCO3)n(Cc3cc4c(cc3Cl)OCO4)c2C(=O)O)CC1` yielded a melting point of 145 °C.

`Nc1nc2ccccc2c2c1nc(CCCOc1ccccc1)n2CCCNC(=O)c1ccccc1` yielded a melting point of 192 to 194 °C.

`Cc1cc(C)cc(-c2[nH]c3ccc(C(=O)O)cc3c2CCN(CCCCc2ccc(NS(C)(=O)=O)cc2)C(=O)OCc2ccccc2)c1` showed a melting point of 212 to 213 °C.

`Cc1cnc2c(c1)CCCC2(C)C(N)=S` (stereo not given): the melting point turned out to be 164 °C.

For `CNCC(O)c1ccc(Cl)cc1` (stereo not given), the melting point fell in the range of 84 to 86 °C.

The molecule `CC(C)C(NC(=O)c1ccc(C(=O)NCc2ccc([N+](=O)[O-])cc2)cc1)C(=O)N1CCCC1C(=O)NC(C(=O)C(F)(F)F)C(C)C` (mixture of isomers) showed a melting point of 94 to 96 °C.

In turn, `CCOC(=O)c1cc(Oc2cc(Cl)c(Cl)cc2Cl)ccc1[N+](=O)[O-]` came in with a melting point of 99 to 102 °C.

In turn, `Cc1nc(-c2c(C)c(C#N)c3nc(C4CC4)oc3c2N2CC[C@H](N(C)C)C2)cs1` returned a melting point of 167 to 168 °C.

The molecule `O=Cc1c(Cl)n(CC2CC2)c2ccccc12` had a melting point of 108 to 109 °C.

Molecule `O=C1O[C@@H](CO)CN1c1ccc(Br)cn1` had a melting point of 123 to 124 °C.

With `COc1ccc(CN(CCN(C)CCCCCCNC(=O)NCCCOc2cccc(CN3CCCCC3)c2)c2ccccn2)cc1`, the melting point turned out to be 75 °C.

Molecule `COc1cc(S(=O)(=O)c2ccncc2)ccc1NC(=O)C(C)(O)C(F)(F)F` (stereo not given) yielded a melting point of 220 to 222 °C.

Consider `CCCc1cc(-c2ccc(Cl)cc2)nc2c(C(=O)Nc3cccc(S(N)(=O)=O)c3)cnn12`, for which the melting point fell in the range of 252 to 254 °C.

`Cc1ccc(NC(=O)c2cccc(N3CCOCC3)c2)cc1NC(=O)c1cccc(N(C)S(C)(=O)=O)c1` came in with a melting point of 208 to 209 °C.

The molecule `BrC12CCCC(C1)C1CCC2C1` (stereo not given) came in with a melting point of 57.5 to 58.5 °C.

`CCc1cccc2c(/C=C(/C)C(=O)O)cc(OC)c(O)c12` yielded a melting point of 127 to 128 °C.

`CCCCNc1nc(C)no1` returned a melting point of 62 to 65 °C.

Take `CC(C)NC1=NS(=O)(=O)c2cc(C(=O)O)ccc2N1`: the melting point was greater than 310 °C.

As to `CCCCOC1OC(CO)C(O)C(O)(N(CC2CCCCC2)C(=O)N(CCCl)N=O)C1O` (stereo not given), the melting point lay in the range of 75 to 77 °C.

As to `CN(CCO)c1nc(-c2ccc(Cl)c(C(=O)NCC34CC5CC(CC(C5)C3)C4)c2)ccc1C(=O)O`, the melting point fell in the range of 121 to 124 °C.

`O=C(c1ccc(Sc2ccccc2)cc1)c1ccc(O)cc1O`: the melting point fell in the range of 117 to 118 °C.

Take `Cc1cc2c(N=C=S)cccc2cn1`: the melting point came to 92 °C.

`O=c1ccn(C2OC(CO)C(O)C2Br)c(=O)[nH]1` (stereo not given) came in with a melting point of 194 to 195 °C.

Take `CC(n1ncnn1)C(O)(c1ccc(OC(F)(F)F)cc1)c1ccc(OC(F)(F)F)cc1` (stereo not given): the melting point was in the range of 55 to 58 °C.

On to `CC(C)(C)c1ccc(COc2ccc(CSc3ccc(OCC(=O)O)c4c3CCC4)cc2)cc1`, for which the melting point is 152 to 153 °C.

Take `CCCCCCCCCCc1cnc(-c2ccc(OCC(C)(C#N)CCCC)cc2)nc1` (stereo not given): the melting point stood at 43 °C.

`CC(C)(C)ON1C(C)(C)CC(OC(=O)c2ccccc2)CC1(C)C` displayed a melting point of 80 to 82.5 °C.

`Cc1onc(-c2ccc(Br)o2)c1-c1ccccc1` came in with a melting point of 93 to 96 °C.

For `CC(=O)SCC(Cc1ccccc1)C(=O)NN1CCCC1` (stereo not given), the melting point stood at 91 °C.

For `O=C1NCCOC1C(O)c1ccccc1` (stereo not given), the melting point lay in the range of 130 to 140 °C.

`C=C(C)Cn1cnc2c(N)nc3ccccc3c21` showed a melting point of 290 to 294 °C.

`O=S(=O)(c1ccccc1)n1ccc2c(Cl)nc(-c3ccccc3)nc21` displayed a melting point of 259 to 260 °C.

As to `CC(=O)OC1Cc2ccccc2N(C(N)=O)c2ccccc21` (stereo not given), the melting point came to 185 °C.

As to `CC(C)COC(=O)N[C@@H](Cc1ccc2ccccc2c1)C(=O)CSCc1ccco1`, the melting point was in the range of 84 to 87 °C.

With `COc1ccccc1NC(=NC#N)NC(NC(=O)c1ccc(Cl)cc1)C(C)(Cl)Cl` (stereo not given), the melting point lay within 185 to 186 °C.

On to `N#Cc1cnc(Nc2ccc(OCCn3cnnc3)cc2)nc1-c1cccs1`, for which the melting point was 228 °C.

In turn, `CCN(CC)C(=O)Oc1ccc2ccccc2c1` had a melting point of 51 to 53 °C.

Molecule `O=C(O)c1coc(Cn2cc(C3c4ccccc4C=Cc4ccccc43)c(=S)[nH]c2=O)n1` registered a melting point of 200 °C.

Molecule `COc1ccc(S(=O)(=O)n2ccc3cccc(-c4ccc(F)cc4)c32)cc1` returned a melting point of 181 to 182 °C.

In the case of `CC(c1ccc(-c2ccccc2)c(F)c1)c1nc(CC(=O)O)no1` (stereo not given), the melting point lay in the range of 100 to 102 °C.

The molecule `Cc1ccc(-c2nccc3c(CCl)cccc23)cc1` returned a melting point of 120 °C.

As to `CC(c1cc2ccccc2s1)N(OCc1ccccc1)C(N)=O` (stereo not given), the melting point amounted to 126 °C.

`O=C1NC(=O)c2ccccc2/C1=C/Nc1ccc(CN2CCCCC2)cc1`: the melting point lay in the range of 185 to 186 °C.

On to `CCCN(C)CC(C)N1c2ccccc2Sc2ccc(C(N)=S)cc21` (racemic), for which the melting point was 204 °C.

Molecule `O=C1Nc2cc3c(cc2OC1CCCBr)CCCC3` (stereo not given) registered a melting point of 139 to 140 °C.

Consider `O=C(O)[C@H](CCc1ccccc1)Oc1ccc(-c2ccco2)cc1`, for which the melting point was in the range of 140 to 142 °C.

Turning to `Cc1ccc(-c2nc(SCc3ccccn3)n[nH]2)c(C)c1`, the melting point was 112 to 114 °C.

`O=C(CCN1C(=O)c2ccccc2C1=O)c1ccccc1C(=O)c1ccc(Cl)cc1Cl` came in with a melting point of 133 to 134 °C.

Molecule `CCCCCCCCCCCCNC(=O)c1cc(Br)c(OCCn2ccnn2)c(-c2cccc(C(F)(F)F)c2)c1` came in with a melting point of 70.5 to 72.5 °C.

In the case of `COC(=O)c1[nH]c2c(C)ccc(C)c2c1-c1ccccc1`, the melting point fell in the range of 143 to 145 °C.

`O=C(O)[C@H](Cc1ccccc1)NS(=O)(=O)c1ccc(Cl)cc1` gave a melting point of 132 to 134 °C.

`COc1cc(O)ccc1-c1ccc2cc(O)ccc2c1` had a melting point of 152 to 154 °C.

For `CC(=O)OCc1cccc2c1nc(-c1c(F)cccc1F)n2Cc1c(F)cccc1F`, the melting point lay within 126 to 127 °C.

`CC(C)CN1C(=O)c2cnc(-c3ccccc3)nc2N(C(=O)CN2CCCCC2)c2ccccc21` came in with a melting point of 193 to 194 °C.

In turn, `O=C1C=C(NCc2ccccc2I)CCN1` had a melting point of 163 to 164 °C.

`CCOC(=O)C1(O)CCSc2ccccc21` (stereo not given): the melting point is 117 to 119 °C.

`CCCCc1nnc2c(NC3CCCC3)nc3ccccc3n12` showed a melting point of 195 to 197 °C.

Turning to `COc1ccc(N2CCN(Cc3cnc(Cc4ccc(OC)c(OC)c4)c4cc(OC)c(OC)cc34)CC2)cc1`, the melting point was 176 to 177 °C.

Take `COc1ccc2c(c1)CCC(C(O)C(=O)O)C2=O` (stereo not given): the melting point fell in the range of 212 to 214 °C.

Take `Cc1cccc2[nH]c(S(=O)Cc3cccn4ccnc34)nc12` (stereo not given): the melting point fell in the range of 166 to 168 °C.

With `CSc1c(N)nc(NCCCOC(C)C)nc1Cl`, the melting point was 245 °C.

`CC(C)[C@H]1CC[C@H](C(=O)N[C@H](Cc2ccc(OCc3ccc(C(F)(F)F)cc3)cc2)C(=O)O)CC1` registered a melting point of 171 to 172 °C.

In the case of `CC(C)c1cc(O)cc2cc(-c3ccc(O)cc3)oc12`, the melting point was 192 to 194 °C.

As to `CC1(C)CCC(C)(C)c2cc3c(cc21)C(=O)C=CC3=O`, the melting point fell in the range of 161 to 163 °C.

`CC(=O)N(C)C[C@H]1CN(c2ccc(N3CCC(=CC#N)CC3)c(F)c2)C(=O)O1` showed a melting point of 128 to 132 °C.

With `CCCOc1ccc(OCCCCC(=O)O)c(C=O)c1O`, the melting point fell in the range of 78 to 79 °C.

Consider `O=C(O)c1ccc(N(CCCc2ccc(Cl)cc2)CCCc2ccc(Cl)cc2)cc1`, for which the melting point lay in the range of 128 to 131 °C.

On to `CCN(c1ccc(C(=O)O)cc1)c1cc2c3c(c1)CCCC3(C)CCC2`, for which the melting point lay within 279 to 280 °C.

`Cc1cccc(C)c1N(Cc1ccon1)C(=O)CCl` came in with a melting point of 78 to 81 °C.

As for `CN1C(=O)CCC2=C1Cc1cc(C(=O)c3ccc(Cl)c(S(N)(=O)=O)c3)ccc12`, the melting point lay within 259 to 260 °C.

`Cc1ccc2c(=O)[nH]sc2n1`: the melting point lay within 187 to 190 °C.

In the case of `CN1CCN(C(=O)c2c(Br)c(Br)c([N+](=O)[O-])c3c2OCCO3)CC1`, the melting point turned out to be 164 °C.

By melting point is commonly meant the temperature of the solid-liquid transition.
